According to US5888978A, “Method for reducing the severity of gastro-intestinal damage” (Trega Biosciences, Inc., priority 1995, dated 1999):

Tested on: indomethacin treated rats
Experiment: indomethacin-induced GI damage in rats (diarrhea and survival)
Assay type: in vivo, Harlan Sprague-Dawley rats
Conditions: Ind-CRA-1 group
Description: As disclosed herein, administration of a CRA reduced the severity of GI damage in indomethacin treated rats. The effect of indomethacin administration on GI damage to rats is a well recognized model for studying the efficacy of agents that can affect GI damage (see, for example, Perkins et al., J. Pharmacol. Expt. Ther. 269:151-156 (1994)). In the model system used in the experiments described in Example I, the appearance of diarrhea and animal survival were determined following administration of indomethacin, alone, or with concurrent treatment using a cytokine regulatory agent.
The CRA, Ac-Nle-Gln-His-(D)Phe-Arg-(D)Trp-Gly-NH2 (CRA-1), was prepared as described (U.S. Pat. No. 5,420,109, supra, 1995). Adult male Harlan Sprague-Dawley rats (325-425 g) were divided into four groups (6 rats/group). Rats were weighed every morning and food was removed prior to receiving any treatment. Two groups of rats were pretreated by intraperitoneal (ip) injection of sterile saline, alone ("control"), and the remaining two groups were pretreated by ip injection of CRA-1 (100 μg/kg in saline). Pretreatment injections were administered between 8:00-9:00 am.
One hr following the pretreatment, one group of control rats was injected ip, on the side opposite the initial injection, with saline (Sal-control) and the other control group was injected with indomethacin (Ind-control; 10 mg/kg in saline, adjusted to pH 7.5-8.5 with NaOH). Similarly, the two groups of CRA-1 treated rats received either saline (Sal-CRA-1) or indomethacin (Ind-CRA-1). At 8 hr and 16 hr after the pretreatment, control rats and CRA-1 rats were administered saline or CRA-1, respectively. Food was returned to the rats after the 8 hr injection. This protocol was repeated for 7 days.

CCCC[C@H](NC(C)=O)C(=O)N[C@@H](CCC(N)=O)C(=O)N[C@@H](Cc1c[nH]cn1)C(=O)N[C@H](Cc1ccccc1)C(=O)N[C@@H](CCCNC(=N)N)C(=O)N[C@H](Cc1c[nH]c2ccccc12)C(=O)NCC(N)=O [CRA-1, Ac-Nle-Gln-His-(D)Phe-Arg-(D)Trp-Gly-NH2]
surviving rats with diarrhea by day 7 (2 of the surviving 5 rats, CRA-1 100 μg/kg ip plus indomethacin 10 mg/kg ip, all 3 surviving Ind-saline rats had diarrhea): 40% | surviving rats with diarrhea by day 8 (3/5, CRA-1 100 μg/kg ip plus indomethacin 10 mg/kg ip): 60% | survival by day 8 (5/6, CRA-1 100 μg/kg ip plus indomethacin 10 mg/kg ip, Ind-saline control 66.7% lethality): 83.3% | rats with diarrhea at day 4 (6 rats, CRA-1 100 μg/kg ip (pretreatment, 8 hr and 16 hr) plus indomethacin 10 mg/kg ip daily, Ind-saline control 5 of 6 (83.3%)): none | rats that had died by day 7 (CRA-1 100 μg/kg ip plus indomethacin 10 mg/kg ip daily for 7 days, Ind-saline control 3 of 6 died): 1 of the 6
